Tests used:
[1] = Pharmacokinetics of paeoniflorin in pseudo-germ-free (PGF) rats; assay type: in vivo; conditions: SD, rat, in vivo, oral paeoniflorin 20 mg/kg, plasma analyte = labelled substance; for AUC(0-t) / Cmax: po, 20 mg/kg
Protocol: Chromatography separation was performed using an XSS T3 column (3.5 μm, 2.1 mm × 100 mm, Waters, Milford, MA, United States) with the column temperature maintained at 40°C at a flow rate of 0.4 mL/min. […] The gradient was as follows: 25% eluent B for 2 min; 25–85% B from 2 to 4 min; 85–25% B from 4 to 5 min and held at 25% from 5 to 7 min. The autosampler temperature was set to 4°C. Mass spectrometry was carried out using multiple reaction monitoring mode (MRM). […] The nebulizing gas flow rate was 2.8 L/min, the drying gas flow rate was 10 L/min, and the heating gas flow rate was 10 L/min. […] The remaining fourteen SD rats were orally administered saline equivalently. Two days after administration, pharmacokinetic experiments were performed. […] Plasma samples were immediately stored at 4°C until analysis. Statistical analyses were conducted using two-way ANOVA and Student’s t-test with GraphPad Prism Version 5 (GraphPad Software, La Jolla, CA, United States). The data are expressed as the means ± standard deviation. […] DAS 3.0 was used to calculate the plasma pharmacokinetic parameters.

[2] = Brain distribution of paeoniflorin and benzoic acid in rats; assay type: in vivo, rat; conditions: at 2 h after oral administration of paeoniflorin 20 mg/kg
[3] = Excretion of paeoniflorin in rats (urine, feces, bile); assay type: in vivo, rat; conditions: normal rats, paeoniflorin 20 mg/kg, excreted form = labelled substance, n = 6
[4] = Pharmacokinetics of paeoniflorin in normal SD rats (plasma, LC-MS/MS); assay type: in vivo, rat; conditions: normal rats, oral paeoniflorin 20 mg/kg, plasma analyte = labelled substance
Protocol: Chromatography separation was performed using an XSS T3 column (3.5 μm, 2.1 mm × 100 mm, Waters, Milford, MA, United States) with the column temperature maintained at 40°C at a flow rate of 0.4 mL/min. […] The gradient was as follows: 25% eluent B for 2 min; 25–85% B from 2 to 4 min; 85–25% B from 4 to 5 min and held at 25% from 5 to 7 min. The autosampler temperature was set to 4°C. Mass spectrometry was carried out using multiple reaction monitoring mode (MRM). […] The nebulizing gas flow rate was 2.8 L/min, the drying gas flow rate was 10 L/min, and the heating gas flow rate was 10 L/min. […] Plasma samples were immediately stored at 4°C until analysis. The method validation assays were carried out in terms of specificity, linearity, sensitivity, accuracy, precisions, recovery, matrix effect and stability. […] Statistical analyses were conducted using two-way ANOVA and Student’s t-test with GraphPad Prism Version 5 (GraphPad Software, La Jolla, CA, United States). The data are expressed as the means ± standard deviation. […] DAS 3.0 was used to calculate the plasma pharmacokinetic parameters.

[5] = Excretion of paeoniflorin in rats (urine, feces, bile); assay type: in vivo, rat; conditions: normal rats, oral paeoniflorin 20 mg/kg, excreted form = labelled substance, n = 6
Protocol: Then, urine samples and feces samples were collected at 0, 6, 12, 24, 48, 72, and 96 h.

[6] = system: carboxylesterase; experiment: Effect of BNPP inhibition on the transformation of paeoniflorin in intestinal culture system; assay type: cell-based, rat gut microbiota; conditions: 24 h, 1 mg/mL paeoniflorin
Protocol: The colon contents of six rats were pooled, and 5 g of the sample was transferred to a ziplock bag and then mixed thoroughly with anaerobic medium (100 mL). After mixing completely, the cultures were stored at 37°C and preincubated for 1 h. Then, 10 μL of paeoniflorin (100 mg/mL) was added to fresh rat intestinal microbial culture (990 μL) under anaerobic conditions of N2, with a final concentration of 1 mg/mL of paeoniflorin in the culture system ([Hattori et al., 1988]). The inactivated bacteria solution was used as a negative control. Cultures were incubated at 37°C for 0, 2, 6, 12, and 24 h, respectively. After terminated the reaction with 3 volumes of acetonitrile, samples were vortexed for 30 s and then centrifuged at 16,162 g for 5 min. A total of 100 μL of the supernatant were transferred to a centrifuge tube, centrifuged at 16,162 g for 5 min and filtered through a 0.45 μm microporous membrane. Finally, 5 μL of the filtrate solution was collected for analysis.
Consistent with the above steps, the carboxylesterase inhibitor BNPP (0.1, 1, 3, and 10 mM) was added to the culture system at different concentrations with a final concentration of 1 mg/mL paeoniflorin. Then, the cultures were incubated at 37°C for 0, 2, 6, 12, and 24 h. The intestinal culture system without BNPP was used as a control group.

[7] = system: depressed rats; experiment: Chronic unpredictable stress depression model, sucrose preference test; assay type: in vivo, rat; conditions: 10 mg/kg, after 2 weeks of drug treatment, compared with model group, n = 8
Protocol: Forty rats were randomly divided into the following groups (n = 8): the normal control group, the model control group, the fluoxetine group (10 mg/kg), the paeoniflorin low-dose group (10 mg/kg), and the paeoniflorin high-dose group (20 mg/kg). Except for the blank control group, the groups were randomly exposed to two stressors, including behavioral constraints, ice water swimming, electric shock, cold stimulation, clip tail, wet bedding, light/dark reversed, shaking, foods and water deprivation, continuously for 8 weeks to establish a chronic unpredictable stress model. The sucrose preference test was performed at 0 and 14 days after administration.

[8] = PGF rats (antibiotic pretreated)

With O=C(O)c1ccccc1 [Benzoic acid, benzoic acid] as the compound, how does the AUC(0-t) ([1]; PGF rats (antibiotic pretreated), read-out: AUC (0-t)) read?
Its AUC(0-t) is 94.8 ± 19.8 ng·h/mL.

What about the Cmax ([1]; PGF rats (antibiotic pretreated), read-out: Cmax) of the same compound?
Its Cmax is 27.6 ± 2.63 ng/mL.

What about the AUC(0-t) ([1]; PGF rats, Figures 3B, 3C, read-out: AUC(0-t) (unit inferred)) of the same compound?
Its AUC(0-t) is 68.5 ng·h/mL.

And the Cmax ([1]; PGF rats, Figures 3B, 3C, read-out: Cmax (unit inferred))?
Its Cmax is 25.4 ng/mL.

What about the AUC(0-inf) [1, 8] of the same compound?
Its AUC(0-inf) is 97.2 ± 20.2 ng·h/mL.

And the Tmax [1, 8]?
The Tmax was 35.8 ± 14.3 min.

And the “detection in SD rat brains” value [2]?
The value was “considerable number”.

What about the “cumulative excretion rate in bile for 60 h” value [3] of the same compound?
Its value is “No benzoic acid was detected”.

What about the AUC(0-t) ([4]; SD, rat, in vivo, po, 20 mg/kg, Figures 2C, 3B, 3C, read-out: AUC(0-t) (unit inferred)) of the same compound?
The AUC(0-t) was 151 ng·h/mL.

What about the Cmax ([4]; SD, rat, in vivo, po, 20 mg/kg, Figures 2C, 3B, 3C, read-out: Cmax (unit inferred)) of the same compound?
The Cmax was 55.6 ng/mL.

And the AUC(0-t) ([4]; SD, rat, in vivo, po, 20 mg/kg, n = 6, read-out: AUC (0-t))?
Its AUC(0-t) is 151 ng·h/mL.

And the Cmax ([4]; SD, rat, in vivo, po, 20 mg/kg, n = 6, read-out: Cmax)?
The Cmax was 55.6 ± 12.1 ng/mL.

And the Cmax ([4]; SD, rat, in vivo, po, 20 mg/kg, read-out: Cmax)?
The Cmax was 55.6 ng/mL.

And the AUC(0-inf) ([4]; SD, rat, in vivo, n = 6)?
The AUC(0-inf) was 162 ± 40.1 ng·h/mL.

And the Tmax ([4]; SD, rat, in vivo, n = 6)?
Its Tmax is 47.5 ± 11.3 min.

And the “AUC(0-t)” value ([4]; n = 6)?
The value was 151.24 ± 29.59 ng·h/mL.

And the “96-h cumulative excretion in feces” value [5]?
Its value is 0.15%.

And the “96-h cumulative excretion in urine” value [5]?
Its value is 42.13%.

Which results are given for O=[N+]([O-])c1ccc(OP(=O)(O)Oc2ccc([N+](=O)[O-])cc2)cc1 [BNPP, bis-p-nitrophenyl phosphate]?
inhibition rate of the conversion of paeoniflorin to benzoic acid ([6]; BNPP 0.1 mM): 8.2%; inhibition rate of the conversion of paeoniflorin to benzoic acid ([6]; BNPP 1 mM): 46.8%; inhibition rate of the conversion of paeoniflorin to benzoic acid ([6]; BNPP 3 mM): 63.7%; inhibition rate of the conversion of paeoniflorin to benzoic acid ([6]; BNPP 10 mM): 74.9%

For CNCCC(Oc1ccc(C(F)(F)F)cc1)c1ccccc1 (centres unmarked) [fluoxetine, reference compound], which sucrose preference value [7] is on record?
Its sucrose preference value is “significantly higher than that of the model control group”.
